# Measured values published in patent publication US20060276381A1, “Remedy for diabetes” (Chugai Seiyaki Kabushiki Kaisha, priority 2002, published 2006).
# No end group written: not given here.
# Columns and labels:
# food-deprived mice = assay: Feeding tests in food-deprived lean mice; format: in vivo; conditions: for Food intake: IP administration, food-deprived mice
# GHS-R in the brain = target: T1, GHS-R in the brain (Mus musculus, UniProt Q99P50); assay: Simultaneous administration of ghrelin (IP) and [D-Lys-3]-GHRP-6 (ICV), food intake; format: in vivo, mice; conditions: free access to food
# T1 construct: possibility that ghrelin would act through GHS-R in the brain; from tissue; host or cells: brain of living mice (ICV administration)
# T1 sequence (Q99P50 whole entry): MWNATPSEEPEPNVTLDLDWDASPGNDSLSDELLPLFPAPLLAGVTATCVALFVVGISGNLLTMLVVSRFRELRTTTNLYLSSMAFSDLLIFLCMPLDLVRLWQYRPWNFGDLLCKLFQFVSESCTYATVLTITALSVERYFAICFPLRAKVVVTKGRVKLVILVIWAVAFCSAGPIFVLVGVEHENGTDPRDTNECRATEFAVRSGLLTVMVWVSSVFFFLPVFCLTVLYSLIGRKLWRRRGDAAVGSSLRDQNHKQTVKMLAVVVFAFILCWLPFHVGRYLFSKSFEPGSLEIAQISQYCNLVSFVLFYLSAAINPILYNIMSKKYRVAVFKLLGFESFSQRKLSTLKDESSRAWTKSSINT
# Protocol: For ICV administration, the mice were anesthetized with sodium pentobarbital (80-85 mg/kg IP) and placed in a stereotaxic instrument (SR-6, Narishige, Tokyo, Japan) seven days before the experiments. A hole was made in each skull by using a needle inserted 0.9 mm lateral to the central suture and 0.9 mm posterior to the bregma. A 24-gauge cannula (Safelet-Cas, Nipro, Osaka, Japan) beveled at one end over a distance of 3 mm was implanted into the third cerebral ventricle for ICV administration. The cannula was fixed to the skull with dental cement and capped with silicon. A 27-gauge injection insert was attached to a microsyringe by PE-20 tubing.
# Before feeding tests, mice were food deprived for 16 hours with free access to water, except during an experiment on the effect of co-administration of [D-Lys-3]-GHRP-6 and ghrelin on food intake, in which mice were given free access to food and water. Food intake was measured by subtracting uneaten food from the initially pre-measured food at 20 minutes, 1, 2 and 4 hours after administration.
# In order to evaluate the possibility that ghrelin would act through GHS-R in the brain, the inventors examined the effects of simultaneous administration of ghrelin and [D-Lys-3]-GHRP-6 on food intake.
# [1] = tested on: gastric emptying rate in mice; assay: Gastric emptying; format: in vivo; conditions: IP, one hour after administration
# Protocol: Before the experiments on gastric emptying, mice were food deprived for 16 hours with free access to water. The fasted mice had free access to pre-weighed pellets for one hour and were then administered [D-Lys-3]-GHRP-6. The mice were deprived of food again for one or two hours after administration. Food intake was measured by weighing the uneaten pellets. Mice were killed by cervical dislocation two or three hours after the start of the experiments. Immediately after that, the stomach was exposed by laparotomy, quickly ligated at both the pylorus and cardia, then removed, and its dry content was weighed. Gastric emptying was calculated according to the following formula: gastric emptying (%)={1−(dry weight of food recovered from the stomach/weight of food intake)}×100. (8) Repeated Administration
# [2] = tested on: mice with diet-induced obesity; assay: Feeding test in mice with diet-induced obesity; format: in vivo; conditions: IP, acute
# ob/ob mice = assay: Feeding test in ob/ob mice; format: in vivo; conditions: IP
# ob/ob obese mice = assay: Repeated IP administration of [D-Lys-3]-GHRP-6 in ob/ob obese mice; format: in vivo
# [3] = rat des-Gln14-ghrelin; cited from earlier work
# [4] = tested on: lean mice under a high-fat diet
# Protocol: Male mice of the ddy strain (34-37 g, JAPAN SLC, Shizuoka, Japan) and obese (ob/ob) C57BL/6J mice (68-74 g, Shionogi Co., Ltd., Shiga, Japan) were used. They were individually housed in a regulated environment (22±2° C., 55±10% humidity, 12:12 hour light:dark cycle with light on at 7:00 AM). Mice received a standard diet containing 12% of total energy as fat or a high-fat diet containing 45% of total energy as fat (CLEA Japan, INC., Tokyo, Japan). Food and water were available ad lib except as otherwise indicated. All experiments were approved by Kobe University animal care committee.
# [D-Lys-3]-GHRP-6, [D-Arg-1, D-Phe-5, D-Trp-7, 9, Leu-11] substance P and rat ghrelin were purchased from BACHEM CALIFORNIA INC. (Torrance, Calif., USA), NEOSYSTEM (Strasbourg, France) and Peptide Institute (Osaka, Japan), respectively. Just before administration, each drug was diluted in 4 μl of artificial cerebrospinal fluid (ACSF) for intra-third cerebroventricular (ICV) administration or in 100 μl of physiological saline for intraperitoneal (IP) administration. Results are expressed as mean value±s.e.m. Analysis of variance(ANOVA) followed by Bonferroni's t test was used to assess the differences among groups. P<0.05 was considered to be statistically significant.
# (§1) Repeated IP administrations were continued for five days in lean mice under a high-fat diet or a standard diet, and for six days in […] obese mice under a standard diet, respectively. The mice were given the administration at 7:00 AM and 19:00 PM. Food intake and body weight were measured daily. Serum was separated from blood obtained from the orbital sinus under ether anesthesia at the end of the experiment (eight hours after removal of food and the final IP administration). Mice were killed by cervical dislocation. Immediately after that, the epididymal fat pad mass assessed as white adipose tissue (WAT) and the gastrocnemius muscle were removed and weighed. Blood glucose was measured by the glucose oxidase method. Serum insulin and free fatty acids (FFA) were measured by enzyme immunoassay and enzymatic method (EIKEN CHEMICAL CO., LTD., Tokyo, Japan), respectively. Serum triglycerides and total cholesterol were measured by an enzymatic method (Wako Pure Chemical Industries, Ltd., Tokyo, Japan).
# (§2) Subsequently, mRNA levels of leptin, adiponectin and resistin in WAT were assessed.
# [5] = tested on: leptin and resistin mRNA in WAT; conditions: repeated IP administrations of ghrelin
# Protocol: as §1, §2
# GHS-R = GHS-R (Rattus norvegicus, UniProt O08725); conditions: CHO cells having GHS-R expressed, chemically synthesized ghrelin; cited from earlier work
# Chain of GHS-R (O08725 whole entry): as the sequence (Q99P50 whole entry) above, with S30P, S249A counted along it
# pituitary gland cells = conditions: primary culture of pituitary gland cells; cited from earlier work
# rats = rats in vivo; cited from earlier work
# [6] = 20 nmol IP every 12 hours for 6 days
# [7] = 200 nmol IP every 12 hours for 6 days
# [8] = HF diet, every 12 hours for 5 days, lean mice, mean ± s.e.m.
# [9] = IP 3 nmol/mouse twice daily for five days
# [10] = IP 3 nmol/mouse twice daily for five days, high-fat diet
substance,measurement,setting,value
"[D-Arg-1, D-Phe-5, D-Trp-7, 9, Leu-11] substance P",Food intake,food-deprived mice,significantly reduced food intake in a dose-dependent manner
[D-Lys-3]-GHRP-6,Feeding behavior,food-deprived mice; ICV administration,potent decrease in feeding behavior
same,Food intake,food-deprived mice,significantly reduced food intake in a dose-dependent manner
same,Effect on feeding induced by IP administration of ghrelin,GHS-R in the brain; [D-Lys-3]-GHRP-6 ICV,abolished the stimulatory effects on the feeding
same,Gastric emptying rate,[1],significant decrease in the gastric emptying rate
same,Body weight gain,[2],resulting decrease in body weight gain
same,Food intake,[2],decreased potently
same,Food intake,ob/ob mice,significantly reduced food intake in ob/ob mice
same,Cholesterol,ob/ob obese mice; [6],219.0 ± 11.24 mg/dL
same,Fat pad mass (epididymal),ob/ob obese mice; [6],0.897 ± 0.169 g
same,Food intake,ob/ob obese mice; [6],4.527 ± 0.261 g/day
same,Free fatty acids,ob/ob obese mice; [6],2.036 ± 0.121 meq/l
same,Glucose (blood),ob/ob obese mice; [6],217.3 ± 27.90 mg/dL
same,Insulin,ob/ob obese mice; [6],41.61 ± 10.85 ng/mL
same,Skeletal muscle (gastrocnemius),ob/ob obese mice; [6],0.314 ± 0.009 g
same,Triglycerides,ob/ob obese mice; [6],38.57 ± 3.551 mg/dL
same,Cholesterol,ob/ob obese mice; [7],228.4 ± 21.84 mg/dL
same,Fat pad mass (epididymal),ob/ob obese mice; [7],0.860 ± 0.086 g
same,Food intake,ob/ob obese mice; [7],4.285 ± 0.298 g/day
same,Free fatty acids,ob/ob obese mice; [7],1.646 ± 0.078 meq/l
same,Glucose (blood),ob/ob obese mice; [7],134.9 ± 19.47 mg/dL
same,Insulin,ob/ob obese mice; [7],36.54 ± 8.695 ng/mL
same,Skeletal muscle (gastrocnemius),ob/ob obese mice; [7],0.326 ± 0.013 g
same,Triglycerides,ob/ob obese mice; [7],41.14 ± 5.990 mg/dL
same,Blood glucose concentrations,ob/ob obese mice; repeated administrations,significantly lowered
same,Body weight gain,ob/ob obese mice; repeated administrations,significantly lowered
same,Muscle weight,ob/ob obese mice; repeated administrations,without reducing the muscle weight
same,Reduction of FFA levels compared with physiological saline-treated ob/ob mice,ob/ob obese mice; repeated administrations,24%
"des-Gln14-ghrelin: ghrelin analog in which Gln 14 in ghrelin is deleted (GSSFLSPEHQKAQRKESKKPPAKLQPR; ends and bridges not checked; UniProt Q9QYH7 24-51, looked up, variant Q14*)",Growth hormone releasing activity relative to ghrelin,[3],the same intensity of growth hormone releasing activity
ghrelin,Calorie intake,[4]; [8],25.94 ± 2.562 kcal/day
same,Cholesterol,[4]; [8],224.8 ± 19.69 mg/dL
same,Fat pad mass (epididymal),[4]; [8],1.202 ± 0.175 g
same,Free fatty acids,[4]; [8],1.636 ± 0.047 meq/l
same,Glucose (blood),[4]; [8],160.5 ± 8.977 mg/dL
same,Insulin,[4]; [8],2.520 ± 0.945 ng/mL
same,Skeletal muscle (gastrocnemius),[4]; [8],0.340 ± 0.005 g
same,Triglycerides,[4]; [8],32.80 ± 7.965 mg/dL
same,Fat pad mass increase compared with saline-treated mice fed high-fat diet,[4]; [9],125%
same,Fat pad mass increase compared with saline-treated mice fed standard diet,[4]; [9],49%
same,Blood glucose concentrations,[4]; [10],moderate increase
same,Body weight gain,[4]; [10],increased significantly
same,Daily energy intake,[4]; [10],concomitant increase
same,Serum cholesterol level,[4]; [10],also increased
same,Serum insulin level,[4]; [10],also increased
same,Skeletal muscle weight,[4]; [10],did not show any increase in weight
same,Leptin mRNA expression in WAT,[5],increased
same,Resistin mRNA expression in WAT,[5],reducing
same,Feeding after IP ghrelin,GHS-R in the brain,stimulatory effects on the feeding
same,Amount having the activity of elevating intracellular Ca++,GHS-R,nanomolar order
same,Growth hormone release,pituitary gland cells,activity of releasing growth hormone
same,Growth hormone in the blood,rats,elevates growth hormone in the blood
